Patent US20100004443A1, “LINEAR PYRIDAZINE AND PYRROLE COMPOUNDS, METHOD FOR OBTAINING THEM AND APPLICATIONS” (CENTRE NATIONAL DE LA RECHERCHE SCIENTIFIQUE (C.N., priority 2006, published 2010)
Values after ≈ are worked out from the molar mass of the structure shown. Values joined by “and” are separate entries in the source; they are usually repeats but may differ in a detail not shown here. Identical values can stand only once.

How the values were obtained:
KB cells = assay: Cytotoxicity on KB cells; type: cell-based
Leishmania mexicana = assay: Parasitology, Leishmania mexicana; type: cell-based; conditions: read-out: Parasitology IC50 or 80 Leishmania mexicana
Candida albicans = assay: Parasitology, Candida albicans; type: cell-based; conditions: read-out: Parasitology IC50 or 80 Candida albicans
[1] = tested on: KB, Caco, Huh7 and fibroblast cells; assay: in vitro cytotoxicity test on KB, Caco, Huh7 and fibroblast cells; type: cell-based
From the text: Preferably, the cancer concerned by the invention is a carcinoma, for instance a carcinoma of the ear, nose or throat, of the lungs, of the uterus, of the digestive system (oesophagus, colon, liver), of the skin, of the breasts, of the prostate, of the ovaries, etc.

Cytotoxicity on KB cells = type: cell-based; conditions: human, KB cells
E. coli = assay: Inhibition of the growth of E. coli; type: cell-based
tonB protein = tonB protein (Escherichia coli, UniProt P02929); assay: Effect on tonB protein (iron transfer for bacterial growth)
Chain of tonB protein (P02929 whole entry): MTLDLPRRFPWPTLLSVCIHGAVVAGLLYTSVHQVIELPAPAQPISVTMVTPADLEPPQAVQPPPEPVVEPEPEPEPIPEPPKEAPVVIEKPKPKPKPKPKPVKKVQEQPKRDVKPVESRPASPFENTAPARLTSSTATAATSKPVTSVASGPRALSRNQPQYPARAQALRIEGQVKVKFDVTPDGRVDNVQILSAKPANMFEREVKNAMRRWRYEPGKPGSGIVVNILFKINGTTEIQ

[2] = second value (cell beside the first)

Compound	KB cells Cytotoxicity % inhibition à [10^−5] (KB cells; first value) [%]	KB cells Cytotoxicity % inhibition à [10^−5] (KB cells; [2]) [%]	IC50 (Leishmania mexicana)	IC50 (Candida albicans)	cytotoxic activity in a cancerous cell model [1]	IC50 (Cytotoxicity on KB cells)	IC50 (KB cells; Homo sapiens, KB, read-out: IC50 on KB cancerous cells) [µg/mL]	inhibition of the growth of E. coli (E. coli)	effect on the tonB protein (tonB protein)
Cc1cccc(-c2ccc(-c3ccc(-c4cccc(C)n4)nn3)nn2)n1 [Compound 2, 6,6′-bis(6-methylpyridin-2-yl)-3,3′-bipyridazine]	23	12	2.2 µM and 0.91 µg/mL	62 µM and 25.9 µg/mL					
S=c1ccc(-c2ccccn2)n[nH]1 [Compound 10, 6-(pyridin-2-yl)-2H-pyridazin-3-thione]	84	74			very high levels of cytotoxic activity				
c1ccc(-c2ccc(-c3ccc(-c4ccccn4)nn3)nn2)nc1 [Compound 19, 6,6′-bis(pyridin-2-yl)-3,3′-bipyridazine]	16								
C=C(OCC)c1ccc(-c2ccc(C(=C)OCC)nn2)nn1 [Compound 24, 6,6′-di-(1-ethoxyvinyl)-3,3′-bipyridazine]	96	95			very high levels of cytotoxic activity	1.23 µM and 0.37 µg/mL	0.3 (≈ 1.01 µM)	able to inhibit the growth of E. coli	affects the tonB protein
Cc1cccc(-c2ccc(-c3ccccn3)nn2)n1 [Compound 44, 3-(6-methylpyridin-2-yl)-6-(pyridin-2-yl)pyridazine]	11	21	< 1 µM and < 0.25 µg/mL	600 nM and 0.15 µg/mL	very high levels of cytotoxic activity				
O=C(O)c1cccc(-c2ccc(-c3ccccn3)nn2)n1 [Compound 45, 3-(2-carboxypyridin-6-yl)-6-(pyridin-2-yl)-pyridazine]	9	3	14 µM and 3.9 µg/mL	> 100 µM					
O=C(O)c1cccc(-c2ccc(-c3cccc(C(=O)O)n3)nn2)n1 [Compound 48, 3,6-bis(2-carboxypyridin-6-yl)-pyridazine]	21		3 µM and 0.96 µg/mL	> 100 µM and ≥ 32.2 µg/mL					
CCCCc1cc(-c2ccccn2)[nH]c1-c1ccccn1 [Compound 68]	43								
c1ccc(-c2ccc(-c3ccccn3)nn2)nc1 [Compound 80, 3,6-bispyridin-2-ylpyridazine]					very high levels of cytotoxic activity				
